Measured values taken from patent US9260415B2, “Heteroaryl pyridone and aza-pyridone compounds with electrophilic functionality” (Genentech, Inc., priority 2013, dated 2016).
One block for each compound: values may come before it.

Biological target: BTK (Homo sapiens (Human), UniProt Q06187)
Experiment: BTK LC3K biochemical assay (LabChip 3000 mobility shift)
Experimental: Formula I compounds were tested by biochemical Btk, Kinase assays (Example 901).
Alternatively, an in vitro BTK biochemical assay that quantifies BTK-catalyzed tyrosine phosphorylation of a synthetic peptide, as detected using a LabChip 3000® microfluidic mobility shift instrument (PerkinElmer; Waltham, Mass.) can be conducted. The substrate peptide, ProfilerPro® FL-Peptide 22 (Product No. 760366; PerkinElmer), has an amino-terminal fluorescent 5-carboxyfluorescein group (5-FAM) and a tyrosine residue that can be phosphorylated by BTK: 5-FAM-[…]-NH2. Purified recombinant human full-length catalytically active BTK protein was obtained from Carna Biosciences (Product No. 08-080; Kobe, Japan).
BTK assay mixtures contained 50 mM 4-(2-hydroxyethyl)-1-piperazineethanesulfonic acid buffer (pH 7.5), 10 mM magnesium chloride, 0.01% Triton X-100, 1 mM dithiothreitol, 1 μM FL-Peptide 22, 45 μM ATP, 1 nM BTK, and a titration of up to 10,000 nM test article in a final concentration of 0.5% (volume to volume [v/v]) DMSO. In the titration experiments, each of the test article concentrations (10 or 12 concentrations) was tested in duplicate. Blank reactions contained ATP, peptide, and DMSO, but no BTK or test article, whereas uninhibited control reactions contained ATP, peptide, BTK, and DMSO, but no test article.
Reactions were incubated for 30 minutes at room temperature (22° C.-23° C.) in a final volume of 20 μL per well in 384-well plates. Ten microliters of BTK plus peptide mixture were added to 10 μL of a mixture of ATP and test article (or vehicle) to initiate the reactions. Reactions were stopped by adding 10 μL of 0.25 M ethylenediaminetetraacetic acid (EDTA) at pH 8.0 to each well. In each reaction, the residual FL-Peptide 22 substrate (S) and the phospho-peptide product (P) generated were separated using the LabChip 3000 instrument. Electrophoretic separation of molecules of product from molecules of substrate was achieved using downstream and upstream voltages of −500 and −2250 V, respectively, at an operating pressure of −1 psi. The 5-FAM group present on both the substrate and product peptides was excited at 488 nm; the fluorescence at 530 nm was detected and the peak heights were reported.
Data Analysis: The extent (or percent) of conversion of substrate to product was calculated from the corresponding peak heights in the electropherogram using HTS Well Analyzer software, version 5.2 (PerkinElmer) and the following equation: conversion=[(P)÷(S+P)]×100 where S and P represent the peak heights of the substrate and product, respectively. After any baseline signal from blank wells containing no BTK was subtracted from the signal of all test wells, the % conversion data were converted to fractional activity as shown in Equation 2, where vi and vo are the % conversion in the presence and absence, respectively, of test article. The % conversion observed in the uninhibited control reaction wells containing BTK and DMSO vehicle, but no test article, was defined to have fractional activity=1 (in this case with no test article present, vi=vo), whereas blank wells with no BTK were defined as having fractional activity=0. Fractional activity was plotted against test article concentration and the data were fit using Genedata Screener software (Genedata; Basel, Switzerland) to the tight-binding apparent inhibition constant (Ki^app) Morrison equation [Williams, J. W. and Morrison, J. F. (1979) The kinetics of reversible tight-binding inhibition. Methods Enzymol 63:437-67]. The following equation was used to calculate fractional activity and Ki^app:
[formula] where [E]T and [I]T are the total concentrations of active enzyme (fixed value of 0.001 μM=1 nM) and test article (e.g., inhibitor; the varied parameter), respectively.

Chain of BTK (Q06187 whole entry): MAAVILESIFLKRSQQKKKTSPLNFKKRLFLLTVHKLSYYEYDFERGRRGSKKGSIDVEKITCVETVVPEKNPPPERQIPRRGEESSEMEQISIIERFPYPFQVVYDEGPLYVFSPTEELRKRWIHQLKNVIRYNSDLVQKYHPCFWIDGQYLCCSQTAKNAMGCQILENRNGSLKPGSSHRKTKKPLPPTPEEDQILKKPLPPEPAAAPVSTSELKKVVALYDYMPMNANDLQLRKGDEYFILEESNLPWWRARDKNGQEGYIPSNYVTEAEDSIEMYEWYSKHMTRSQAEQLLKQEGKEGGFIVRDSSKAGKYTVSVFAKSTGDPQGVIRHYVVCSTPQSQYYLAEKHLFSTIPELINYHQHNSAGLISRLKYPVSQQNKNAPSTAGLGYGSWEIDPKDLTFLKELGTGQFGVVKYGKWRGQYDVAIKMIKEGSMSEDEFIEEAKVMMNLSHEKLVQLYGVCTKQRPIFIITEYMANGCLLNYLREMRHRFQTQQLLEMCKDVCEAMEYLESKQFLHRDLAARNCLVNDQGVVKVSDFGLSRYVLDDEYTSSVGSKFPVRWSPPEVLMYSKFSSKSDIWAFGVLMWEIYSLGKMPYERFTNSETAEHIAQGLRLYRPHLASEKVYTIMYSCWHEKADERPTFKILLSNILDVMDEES

SMILES: C=CC(=O)NCCOc1cccc(Nc2cc(-c3ccnc(N4CCn5c(cc6c5CC(C)(C)C6)C4=O)c3CO)cn(C)c2=O)n1 [Compound 101, N-{2-[(6-{[5-(2-{4,4-dimethyl-9-oxo-1,10-diazatricyclo[6.4.0.0^2,6]dodeca-2(6),7-dien-10-yl}-3-(hydroxymethyl)pyridin-4-yl)-1-methyl-2-oxo-1,2-dihydropyridin-3-yl]amino}pyridin-2-yl)oxy]ethyl}prop-2-enamide]
Ki: 0.792 nM

SMILES: Cn1cc(-c2ccnc(N3CCn4c(cc5c4CC(C)(C)C5)C3=O)c2CO)cc(Nc2ccnc(N3CCC(C(=O)NCC#N)C3)n2)c1=O (stereo not shown) [Compound 102, N-(cyanomethyl)-1-(4-{[5-(2-{4,4-dimethyl-9-oxo-1,10-diazatricyclo[6.4.0.0^2,6]dodeca-2(6),7-dien-10-yl}-3-(hydroxymethyl)pyridin-4-yl)-1-methyl-2-oxo-1,2-dihydropyridin-3-yl]amino}pyrimidin-2-yl)pyrrolidine-3-carboxamide]
Ki: 0.864 nM

SMILES: C=CC(=O)NCCOc1cccc(Nc2cc(-c3ccnc(-n4ncc5cc(C(C)(C)C)cc(F)c5c4=O)c3CO)cn(C)c2=O)n1 [Compound 104, N-[2-[[6-[[5-[2-(6-tert-butyl-8-fluoro-1-oxo-phthalazin-2-yl)-3-(hydroxymethyl)-4-pyridyl]-1-methyl-2-oxo-3-pyridyl]amino]-2-pyridyl]oxy]ethyl]prop-2-enamide]
Ki: 0.915 nM

SMILES: C=CC(=O)NCCNc1cccc(Nc2cc(-c3cc(F)cc(-n4ncc5c6c(sc5c4=O)CCCC6)c3CO)cn(C)c2=O)n1 [Compound 105, N-[2-[[6-[[5-[5-fluoro-2-(hydroxymethyl)-3-(4-oxo-6,7,8,9-tetrahydrobenzothiopheno[2,3-d]pyridazin-3-yl)phenyl]-1-methyl-2-oxo-3-pyridyl]amino]-2-pyridyl]amino]ethyl]prop-2-enamide]
Ki: 0.248 nM

SMILES: CC#CC(=O)NCCOc1cccc(Nc2cc(-c3cc(F)cc(-n4ncc5c6c(sc5c4=O)CCCC6)c3CO)cn(C)c2=O)n1 [Compound 106, N-[2-[[6-[[5-[5-fluoro-2-(hydroxymethyl)-3-(4-oxo-6,7,8,9-tetrahydrobenzothiopheno[2,3-d]pyridazin-3-yl)phenyl]-1-methyl-2-oxo-3-pyridyl]amino]-2-pyridyl]oxy]ethyl]but-2-ynamide]
Ki: 0.306 nM

SMILES: C=CC(=O)N[C@@H](C)COc1cccc(Nc2cc(-c3ccnc(N4CCn5c(cc6c5CC(C)(C)C6)C4=O)c3CO)cn(C)c2=O)n1 [Compound 107, N-[(1S)-2-[[6-[[5-[2-(7,7-dimethyl-4-oxo-1,2,6,8-tetrahydrocyclopenta[3,4]pyrrolo[3,5-b]pyrazin-3-yl)-3-(hydroxymethyl)-4-pyridyl]-1-methyl-2-oxo-3-pyridyl]amino]-2-pyridyl]oxy]-1-methyl-ethyl]prop-2-enamide]
Ki: 0.612 nM

SMILES: C=CC(=O)N[C@@H](C)COc1cccc(Nc2cc(-c3cc(F)cc(-n4ncc5c6c(sc5c4=O)CCCC6)c3CO)cn(C)c2=O)n1 [Compound 108, N-[(1S)-2-[[6-[[5-[5-fluoro-2-(hydroxymethyl)-3-(4-oxo-6,7,8,9-tetrahydrobenzothiopheno[2,3-d]pyridazin-3-yl)phenyl]-1-methyl-2-oxo-3-pyridyl]amino]-2-pyridyl]oxy]-1-methyl-ethyl]prop-2-enamide]
Ki: 2.57 nM

SMILES: C=CC(=O)NCCN(C)c1cccc(Nc2cc(-c3cc(F)cc(-n4ncc5c6c(sc5c4=O)CCCC6)c3CO)cn(C)c2=O)n1 [Compound 111, N-[2-[[6-[[5-[5-fluoro-2-(hydroxymethyl)-3-(4-oxo-6,7,8,9-tetrahydrobenzothiopheno[2,3-d]pyridazin-3-yl)phenyl]-1-methyl-2-oxo-3-pyridyl]amino]-2-pyridyl]-methyl-amino]ethyl]prop-2-enamide]
Ki: 0.494 nM

SMILES: C=CC(=O)N(C)CCOc1cccc(Nc2cc(-c3ccnc(N4CCn5c(cc6c5CC(C)(C)C6)C4=O)c3CO)cn(C)c2=O)n1 [Compound 112, N-[2-[[6-[[5-[2-(7,7-dimethyl-4-oxo-1,2,6,8-tetrahydrocyclopenta[3,4]pyrrolo[3,5-b]pyrazin-3-yl)-3-(hydroxymethyl)-4-pyridyl]-1-methyl-2-oxo-3-pyridyl]amino]-2-pyridyl]oxy]ethyl]-N-methyl-prop-2-enamide]
Ki: 1.75 nM

SMILES: C=CC(=O)N(C)CCOc1cccc(Nc2cc(-c3cc(F)cc(-n4ncc5c6c(sc5c4=O)CCCC6)c3CO)cn(C)c2=O)n1 [Compound 113, N-[2-[[6-[[5-[5-fluoro-2-(hydroxymethyl)-3-(4-oxo-6,7,8,9-tetrahydrobenzothiopheno[2,3-d]pyridazin-3-yl)phenyl]-1-methyl-2-oxo-3-pyridyl]amino]-2-pyridyl]oxy]ethyl]-N-methyl-prop-2-enamide]
Ki: 0.146 nM

SMILES: C=CC(=O)N[C@H]1CCCN(c2cccc(Nc3cc(-c4cc(F)cc(-n5ncc6c7c(sc6c5=O)CCCC7)c4CO)cn(C)c3=O)n2)C1 [Compound 115, N-[(3S)-1-[6-[[5-[5-fluoro-2-(hydroxymethyl)-3-(4-oxo-6,7,8,9-tetrahydrobenzothiopheno[2,3-d]pyridazin-3-yl)phenyl]-1-methyl-2-oxo-3-pyridyl]amino]-2-pyridyl]-3-piperidyl]prop-2-enamide]
Ki: 2.16 nM

SMILES: C=C(C#N)C(=O)NCCOc1cccc(Nc2cc(-c3cc(F)cc(-n4ncc5c6c(sc5c4=O)CCCC6)c3CO)cn(C)c2=O)n1 [Compound 117, 2-cyano-N-[2-[[6-[[5-[5-fluoro-2-(hydroxymethyl)-3-(4-oxo-6,7,8,9-tetrahydrobenzothiopheno[2,3-d]pyridazin-3-yl)phenyl]-1-methyl-2-oxo-3-pyridyl]amino]-2-pyridyl]oxy]ethyl]prop-2-enamide]
Ki: 0.576 nM

Ki: 0.963 nM
SMILES: CCC(=O)NCCOc1cccc(Nc2cc(-c3ccnc(N4CCn5c(cc6c5CC(C)(C)C6)C4=O)c3CO)cn(C)c2=O)n1 [Compound 119, N-{2-[(6-{[5-(2-{4,4-dimethyl-9-oxo-1,10-diazatricyclo[6.4.0.0^2,6]dodeca-2(6),7-dien-10-yl}-3-(hydroxymethyl)pyridin-4-yl)-1-methyl-2-oxo-1,2-dihydropyridin-3-yl]amino}pyridin-2-yl)oxy]ethyl}propanamide]
